# Laboratory results: the supplement of paper PMC10307832
# Compound: C1CSC2=C(C(=O)N1)SC3=C2C=C(C=C3)O [kb NB 142-70] + CC(=O)c1c(C)c2cnc(Nc3ccc(N4CCNCC4)cn3)nc2n(C2CCCC2)c1=O [Palbociclib] (partner 0.5 µM)
# Assay: relative viability (nuclei count vs DMSO), 5 days (fraction); higher = more cells survive
# Conditions: first compound 0.1 µM
# Procedure, shortened: (§1)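 Medians of duplicate plates are given as relative viability. That measure is the nuclei count in treated wells divided by the count in vehicle wells. Counts were taken on 4× images of lung cancer cell lines in 1536-well plates, 5 days after pin-tool dosing the day after seeding with one drug alone or a fixed anchor-drug dose plus five library-drug doses (not always all listed) in √10 steps.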
row,Cell Line,relative viability
1,NCI-H322M,0.541
2,LCLC-97TM1,0.229
3,NCI-H2009,0.286
4,A-427,0.505
5,NCI-H661,0.379
6,NCI-H1734,0.365
7,NCI-H460,0.166
8,NCI-H2347,0.438
9,SK-LU-1,0.404
10,201T,0.35
11,NCI-H1915,0.498
12,HCC-827,0.525
13,LXF-289,0.578
14,NCI-H23,0.409
15,NCI-H647,0.289
16,CAL-12T,0.48
17,NCI-H1651,0.527
18,EPLC-272H,0.324

row,Cell Line,relative viability
1,NCI-H2228,0.819
2,NCI-H1792,0.586
3,NCI-H1355,0.417
4,NCI-H3122,0.181
5,NCI-H1437,0.337
6,NCI-H1755,0.466
7,NCI-H2023,0.389
8,HCC-15,0.699
9,PC-14,0.557
10,EKVX,0.361
11,LC-2-ad,0.457
12,NCI-H1944,0.334
13,NCI-H1975,0.599
14,RERF-LC-KJ,1.1
15,ABC-1,0.425
16,NCI-H358,0.127
17,NCI-H650,0.362
18,PC-3 [JPC-3],0.516

# Same assay, conditions: first compound 1 µM
row,Cell Line,relative viability
1,NCI-H322M,0.511
2,LCLC-97TM1,0.216
3,NCI-H2009,0.304
4,A-427,0.555
5,NCI-H661,0.363
6,NCI-H1734,0.363
7,NCI-H460,0.233
8,NCI-H2347,0.439
9,SK-LU-1,0.412
10,201T,0.361
11,NCI-H1915,0.52
12,HCC-827,0.459
13,LXF-289,0.613
14,NCI-H23,0.471
15,NCI-H647,0.372
16,CAL-12T,0.363
17,NCI-H1651,0.555
18,EPLC-272H,0.329

row,Cell Line,relative viability
1,NCI-H2228,0.719
2,NCI-H1792,0.722
3,NCI-H1355,0.39
4,NCI-H3122,0.199
5,NCI-H1437,0.297
6,NCI-H1755,0.411
7,NCI-H2023,0.379
8,HCC-15,0.699
9,PC-14,0.636
10,EKVX,0.393
11,LC-2-ad,0.475
12,NCI-H1944,0.358
13,NCI-H1975,0.662
14,RERF-LC-KJ,1.18
15,ABC-1,0.83
16,NCI-H358,0.136
17,NCI-H650,0.422
18,PC-3 [JPC-3],0.54

# Same assay, conditions: first compound 3.162 µM
row,Cell Line,relative viability
1,NCI-H322M,0.505
2,LCLC-97TM1,0.193
3,NCI-H2009,0.285
4,A-427,0.507
5,NCI-H661,0.342
6,NCI-H1734,0.279
7,NCI-H460,0.171
8,NCI-H2347,0.488
9,SK-LU-1,0.359
10,201T,0.394
11,NCI-H1915,0.343
12,HCC-827,0.396
13,LXF-289,0.567
14,NCI-H23,0.28
15,NCI-H647,0.414
16,CAL-12T,0.188
17,NCI-H1651,0.526
18,EPLC-272H,0.28

row,Cell Line,relative viability
1,NCI-H2228,0.446
2,NCI-H1792,0.836
3,NCI-H1355,0.404
4,NCI-H3122,0.187
5,NCI-H1437,0.279
6,NCI-H1755,0.44
7,NCI-H2023,0.257
8,HCC-15,0.588
9,PC-14,0.496
10,EKVX,0.37
11,LC-2-ad,0.513
12,NCI-H1944,0.376
13,NCI-H1975,0.435
14,RERF-LC-KJ,0.983
15,ABC-1,0.534
16,NCI-H358,0.0896
17,NCI-H650,0.394
18,PC-3 [JPC-3],0.534

# Compound: C1CSC2=C(C(=O)N1)SC3=C2C=C(C=C3)O [kb NB 142-70] + CS(=O)(=O)CCNCc1ccc(-c2ccc3ncnc(Nc4ccc(OCc5cccc(F)c5)c(Cl)c4)c3c2)o1 [Lapatinib] (partner 2 µM)
# Assay: as above
# Conditions: first compound 0.1 µM
# Procedure, shortened: as §1
row,Cell Line,relative viability
1,NCI-H322M,0.568
2,LCLC-97TM1,0.992
3,NCI-H2009,0.952
4,A-427,1.12
5,NCI-H661,0.511
6,NCI-H1734,1.06
7,NCI-H460,1.02
8,NCI-H2347,1.02
9,SK-LU-1,0.865
10,201T,1.05
11,NCI-H1915,1.05
12,HCC-827,0.206
13,LXF-289,0.917
14,NCI-H23,1.23
15,NCI-H647,1.11
16,CAL-12T,0.673
17,NCI-H1651,0.902
18,EPLC-272H,0.937

row,Cell Line,relative viability
1,NCI-H2228,1.07
2,NCI-H1792,0.87
3,NCI-H1355,0.993
4,NCI-H3122,0.872
5,NCI-H1437,0.728
6,NCI-H1755,1.02
7,NCI-H2023,0.809
8,HCC-15,0.854
9,PC-14,0.362
10,EKVX,0.263
11,LC-2-ad,0.96
12,NCI-H1944,0.865
13,NCI-H1975,0.894
14,RERF-LC-KJ,0.956
15,ABC-1,0.946
16,NCI-H358,0.45
17,NCI-H650,1.05
18,PC-3 [JPC-3],0.452

# Same assay, conditions: first compound 1 µM
row,Cell Line,relative viability
1,NCI-H322M,0.646
2,LCLC-97TM1,0.685
3,NCI-H2009,1.03
4,A-427,1.14
5,NCI-H661,0.478
6,NCI-H1734,0.895
7,NCI-H460,1.03
8,NCI-H2347,1.07
